This note sets out measurements from patent US10568854B2, “Compositions and methods for treating kabuki syndrome and related disorders” (THE JOHNS HOPKINS UNIVERSITY, priority 2014, dated 2020).

The test system of data set [1] is Kmt2d^+/βGeo mice (mouse model of Kabuki syndrome). Nature of the data set: Morris water maze (Example 1). The conditions noted are these: 10 mg/kg/day. The data set is classed as in vivo. From the text:
Animals: Kmt2d^+/βGeo mice, also named Mll2Gt^(RRt024)Byg, were acquired from Bay Genomics (University of California). All experimental mice were on a mixed C57BL/6J and 129/SvEv background. Expected Mendelian ratios were observed when heterozygous animals were bred to wild-type. In heterozygous crosses, however, there was uniform embryonic lethality of homozygotes by ED12, the earliest developmental stage assayed. For treatment with AR-42 mice were orally gavaged daily with drug (Selleck Chemicals, Houston, Tex.) solubilized in vehicle (0.5% methylcellulose, 0.1% Tween-80, water) or with vehicle alone. Drug delivery information was kindly provided by Drs. […] For quantification of DCX positive cells, doses of 0, 5, 10 and 25 mg/kg/day were used. […] Maxillary protrusion was evaluated by ten investigators blinded to genotype and they were asked to rate maxillary protrusion on radiographs as either large (2) or small (1). […]
Morris water maze: Mice were placed in a 1.1 meter diameter tank filled with room temperature water dyed with non-toxic white paint. […] Latency to reach the platform was measured during each trial. […] Average number of crossings of the platform's previous location was recorded. […] For all training and probe testing, data was recorded both manually and electronically with ANY-maze software (San Diego Instruments, San Diego, Calif.) when applicable. […]

Data set [2] concerns DCX positive cells in the GCL. Description: DCX (doublecortin) expression in the GCL, neurogenesis (AR-42 treated mice). The data set is classed as in vivo, mouse. From the text: Animals: Kmt2d^+/βGeo mice, also named Mll2Gt^(RRt024)Byg, were acquired from Bay Genomics (University of California). All experimental mice were on a mixed C57BL/6J and 129/SvEv background. Expected Mendelian ratios were observed when heterozygous animals were bred to wild-type. In heterozygous crosses, however, there was uniform embryonic lethality of homozygotes by ED12, the earliest developmental stage assayed. For treatment with AR-42 mice were orally gavaged daily with drug (Selleck Chemicals, Houston, Tex.) solubilized in vehicle (0.5% methylcellulose, 0.1% Tween-80, water) or with vehicle alone. Drug delivery information was kindly provided by Drs. Chen and Kulp from Ohio State University (Huang et al. (2011) Mol. Pharmacol. 79:197-20619). Drug was administered for 14 days and mice were sacrificed on day 15. Morris water maze testing was initiated at day 7 and a dose of 10 mg/kg/day was used for these studies. For quantification of DCX positive cells, doses of 0, 5, 10 and 25 mg/kg/day were used. Genotyping was performed using primers B-GeoF-([…]; SEQ ID NO: 1) and B-GeoR-([…]; SEQ ID NO: 2) that are specific for the targeted allele and TcrdF-([…]; SEQ ID NO: 3) and TcrdR-([…]; SEQ ID NO: 4) that control for sufficient DNA concentration. Real-time PCR using the same primers allows discrimination between the heterozygous and homozygous state for the targeted allele. Maxillary protrusion was evaluated by ten investigators blinded to genotype and they were asked to rate maxillary protrusion on radiographs as either large (2) or small (1). […] All experiments were performed using mouse protocols approved by the Animal Care and Use Committee of Johns Hopkins University School of Medicine. The mouse protocols used for this study are in accordance with the guidelines used by the NIH for mouse care and handling.
Immunofluorescence: Every 6th brain section was selected and then blocked with 5% Bovine Serum Albumin (BSA) at room temperature followed by incubation with primary antibodies overnight at 4° C. Secondary antibodies were then applied for 1 hour at room temperature, after which sections were mounted onto microscope slides with Vectamount with DAPI (Vector Laboratories, Burlingame, Calif.). Primary antibodies included Doublecortin (DCX) (SC-8066, Santa Cruz Biotechnology, Dallas, Tex., 1:200 goat), trimethylated H3K4 (9727L, Cell Signaling Technology, Beverly, Mass., 1:500 rabbit), and Kmt2d H-300 (SC-292359, Santa Cruz Biotechnology, Dallas, Tex., 1:500 rabbit). Non-specific binding was not observed when sections were sequentially exposed to serum (or IgG when appropriate) from the same species as the primary antibody for each experiment (i.e. rabbit for KMT2D and H3K4me3 and goat for doublecortin), followed by the secondary antibody used for KMT2D and H3K4me3 (anti-rabbit) or doublecortin (anti-goat, FIG. 27).
GCL and doublecortin area: The area of both the GCL and DCX+ cells was measured using the NS elements 2.0 software (Nikon, Tokyo, JPN). Normalized DCX area was calculated by measuring the DCX+ area of the GCL and setting the baseline (Kmt2d^+/+) fraction to 1. A Student t-test with significance value set at P<0.05 was used for comparison of DCX+ area referenced to GCL area between genotypes and treatment arms.

“Also recorded” adds a separate entry of the source.

Turning to `CC(C)[C@H](C(=O)Nc1ccc(C(=O)NO)cc1)c1ccccc1` [AR-42, (S)—N-hydroxy-4-(3-methyl-2-phenylbutanamido)benzamide], the “frequency of platform crossing during probe trial” value in data set [1] is given as “improved performance for both genotypes; also recorded: normalized”. For the same compound, the “escape latency during training, with versus without drug” value in data set [1] (Kmt2d^+/βGeo animals) was “No significant difference is observed”. The “DCX expression in the GCL” value in data set [2] (10 mg/kg/day, older mice (5-6 months), Kmt2d^+/βGeo) is given as “improved”; in data set [2] (25 mg/kg/day, Kmt2d^+/+ animals) it was “reduced DCX expression”; in data set [2] (25 mg/kg/day, Kmt2d^+/βGeo mice), “did not improve DCX expression”; in data set [2] (25 mg/kg/day, young (1-2 month-old) and old (5-6 month-old), both genotypes), “decreased DCX expression”; in data set [2] (5 and 10 mg/kg/day, Kmt2d^+/+ or Kmt2d^+/βGeo, both age groups), “preservation or restoration of DCX expression”. The “neurogenesis (normalized DCX expression)” value in data set [2] (1-2 month old Kmt2d^+/βGeo mice, doses 0, 5, 10 mg/kg/day) is “dose-dependent increase in neurogenesis”.
